According to patent publication US20110152086A1, “Herbicidal Compositions Comprising Flufenacet” (BAYER CROPSCIENCE AG, priority 2009, published 2011):
Read-outs that look alike come from different tables or passages of the source.

Tests used:
[1] = test system: APESV; assay: Greenhouse trial, different sowing depths (Table 6); type: in vivo; details: PE application, (A) 90, (B) 1200 g of AS/ha; for activity, APESV 5 mm: sowing depth 5 mm; for activity, APESV 20 mm: sowing depth 20 mm
Experimental: (§1) In the standard design of the test, seeds of various broad-leaved weed and weed grass biotypes (origins) were sown in a 8-13 cm diameter pot filled with natural soil of a standard field soil (loamy silt; non-sterile) and covered with a covering soil layer of about 1 cm. The pots were then cultivated in a greenhouse (12-16 h of light, temperature day 20-22° C., night 15-18° C.) until the time of application. The pots were treated on a laboratory track sprayer with spray liquors comprising the compositions according to the invention, mixtures of the prior art or components used individually. Application of the active compounds or active compound combinations formulated as WG, WP, EC or otherwise was carried out at the appropriate growth stages of the plants. The application rate for the spray application was 100-600 l of water/ha. After the treatment, the plants were returned to the greenhouses.
(§2) About 3 weeks after the application, the soil action or/and foliar action was assessed visually according to a scale of 0-100% in comparison to an untreated comparative group: 0%=no noticeable effect compared to the untreated comparative group; 100%=full effect compared to the untreated comparative group.
(§3) (notes: the term “seeds” also includes vegetative propagation forms such as, for example, rhizome pieces; abbreviations used: h light=hours of illumination, g of AS/ha=gram of active substance per hectare, l/ha=liter per hectare, S=sensitive, R=resistant) • 1. Pre-emergence action against weeds: seeds of various broad-leaved weed and weed grass biotypes (origins) were sown in a 8-13 cm diameter pot filled with natural soil of a standard field soil (loamy silt; non-sterile) and covered with a covering soil layer of about 1 cm. The pots were then cultivated in a greenhouse (12-16 h of light, temperature day 20-22° C., night 15-18° C.) until the time of application. The pots were treated at the BBCH stage 00-10 of the seeds/plants on a laboratory track sprayer with spray liquors comprising the compositions according to the invention, mixtures or components used individually, as WG, WP, EC or other formulations. The application rate for the spray application was 100-600 l of water/ha. After the treatment, the plants were returned to the greenhouses and, when required, treated with fertilizer and watered. • 2. Post-emergence action against weeds: seeds of various broad-leaved weed and weed grass biotypes (origins) were sown in a 8-13 cm diameter pot filled with natural soil of a standard field soil (loamy silt; non-sterile) and covered with a covering soil layer of about 1 cm. The pots were then cultivated in a greenhouse (12-16 h of light, temperature day 20-22° C., night 15-18° C.) until the time of application. […]

[2] = test system: TRZAW; assay: Greenhouse trial, PE application, crop (Table 3); details: Triticum aestivum (winter wheat), in vivo
Experimental: as §1
as §2, with “group. […]” for “group.”

[3] = test system: PAPRH; assay: Greenhouse trial, PE application on sensitive and resistant biotypes (Table 5); type: in vivo; details: for activity, PAPRH resistant: resistant biotype; for activity, PAPRH resistant / activity, PAPRH Sensitive: (A) 90, (B) 1200, iodosulfuron 10 g of AS/ha; for activity, PAPRH Sensitive: sensitive biotype
Experimental: as §1, §2
(§4) (notes: the term “seeds” also includes vegetative propagation forms such as, for example, rhizome pieces; abbreviations used: h light=hours of illumination, g of AS/ha=gram of active substance per hectare, l/ha=liter per hectare, S=sensitive, R=resistant) • 1. Pre-emergence action against weeds: seeds of various broad-leaved weed and weed grass biotypes (origins) were sown in a 8-13 cm diameter pot filled with natural soil of a standard field soil (loamy silt; non-sterile) and covered with a covering soil layer of about 1 cm. The pots were then cultivated in a greenhouse (12-16 h of light, temperature day 20-22° C., night 15-18° C.) until the time of application. The pots were treated at the BBCH stage 00-10 of the seeds/plants on a laboratory track sprayer with spray liquors comprising the compositions according to the invention, mixtures or components used individually, as WG, WP, EC or other formulations. The application rate for the spray application was 100-600 l of water/ha. After the treatment, the plants were returned to the greenhouses and, when required, treated with fertilizer and watered. • 2. Post-emergence action against weeds: seeds of various broad-leaved weed and weed grass biotypes (origins) were sown in a 8-13 cm diameter pot filled with natural soil of a standard field soil (loamy silt; non-sterile) and covered with a covering soil layer of about 1 cm. The pots were then cultivated in a greenhouse (12-16 h of light, temperature day 20-22° C., night 15-18° C.) until the time of application. The pots were treated at various BBCH stages between 11-25 of the seeds/plants, i.e. generally between two to three weeks after the start of the cultivation, on a laboratory track sprayer with spray liquors comprising the compositions according to the invention, mixtures or components used individually, as WG, WP, EC or other formulations. The application rate for the spray application was 100-600 l of water/ha. After the treatment, the plants were returned to the greenhouses and, when required, treated with fertilizer and watered. • 3. Pre-emergence action against weeds with and without incorporation of active compound: seeds of various broad-leaved weed and weed grass biotypes (origins) were sown in a 8-13 cm diameter pot filled with natural soil of a standard field soil (loamy silt; non-sterile). […]

[4] = test system: LOLPE; assay: Greenhouse trial, PE application vs application 7 days prior to sowing (Table 3); type: in vivo, Lolium perenne; details: (A) 90, (B) 1200 g of AS/ha
Experimental: as §1, §2, §3

[5] = test system: LOLSS; assay: Greenhouse trial, PE application on sensitive and resistant biotypes (Table 5); type: in vivo, Lolium species; details: for activity, LOLSS resistant: resistant biotype; for activity, LOLSS resistant / activity, LOLSS Sensitive: (A) 90, (B) 1200, iodosulfuron 10 g of AS/ha; for activity, LOLSS Sensitive: sensitive biotype
Experimental: as §1, §2, §4

[6] = test system: VIOAR; assay: Greenhouse trial, PO application (Table 2); type: in vivo, Viola arvensis; details: (A) 120, (B) 1600 g of AS/ha
Experimental: as §1
as §2, with “group. […]” for “group.”

[7] = test system: VIOAR; assay: Greenhouse trial, PE soil application vs incorporation into the soil (Table 1a); type: in vivo, Viola arvensis; details: (A) 90, (B) 1200 g of AS/ha
Experimental: as §1, §2, §3

[8] = test system: HORVS; assay: Greenhouse trial, selective PO application (Table 2); details: Hordeum vulgare (summer barley), in vivo
Experimental: as §1
as §2, with “group. […]” for “group.”

[9] = test system: AVEFA; assay: Greenhouse trial, PE application vs application 7 days prior to sowing (Table 3); type: in vivo, Avena fatua; details: (A) 90, (B) 1200 g of AS/ha
Experimental: as §1, §2, §3

[10] = test system: TRZAS; assay: Greenhouse trial, PE application with different soil types, crop (Table 4); details: Triticum aestivum (summer wheat), in vivo
Experimental: as §1, §2, §4

[11] = test system: POOAN; assay: Greenhouse trial, PE application vs application 7 days prior to sowing (Table 3); type: in vivo, Poa annua; details: (A) 90, (B) 1200 g of AS/ha
Experimental: as §1, §2, §3

[12] = test system: LOLPE; assay: Greenhouse trial, PE application with different soil types (Table 4); type: in vivo, Lolium perenne; details: (A) 120, (B) 1200 g of AS/ha
Experimental: as §1, §2, §4

[13] = test system: VIOAR; assay: Greenhouse trial, different sowing depths (Table 6); type: in vivo, Viola arvensis; details: head prints PO application, (A) 90, (B) 1200 g of AS/ha; for activity, VIOAR 5 mm: sowing depth 5 mm; for activity, VIOAR 20 mm: sowing depth 20 mm
Experimental: as §1, §2, §3

[14] = test system: LOLPE; assay: Greenhouse trial, PO application (Table 2); type: in vivo, Lolium perenne; details: (A) 120, (B) 1600 g of AS/ha
Experimental: as §1
as §2, with “group. […]” for “group.”

[15] = test system: MATCH; assay: Greenhouse trial, different sowing depths (Table 6); type: in vivo, Matricaria chamomilla; details: head prints PO application, (A) 90, (B) 1200 g of AS/ha; for activity, MATCH 5 mm: sowing depth 5 mm; for activity, MATCH 20 mm: sowing depth 20 mm
Experimental: as §1, §2, §3

[16] = test system: STEME; assay: as above; type: in vivo, Stellaria media; details: PE application, (A) 90, (B) 1200 g of AS/ha; for activity, STEME 5 mm: sowing depth 5 mm; for activity, STEME 20 mm: sowing depth 20 mm
Experimental: as §1, §2, §3

[17] = test system: TRZAS; assay: Greenhouse trial, application 7 days prior to sowing, crop (Table 3); details: Triticum aestivum (summer wheat), in vivo
Experimental: as §1
as §2, with “group. […]” for “group.”

[18] = test system: STEME; assay: Greenhouse trial, PO application (Table 2); type: in vivo, Stellaria media; details: (A) 120, (B) 1600 g of AS/ha
Experimental: as §1
as §2, with “group. […]” for “group.”

[19] = Application 7 days prior to sowing

Row | Structure (SMILES) | activity, APESV 5 mm [1] [%] | activity, APESV 20 mm [1] [%] | activity, TRZAW [2] [%] | Difference resistant to sensitive Δ^D, PAPRH [3] | activity, PAPRH resistant [3] [%] | activity, PAPRH Sensitive [3] [%] | activity, LOLPE [4, 19] [%] | activity, LOLPE ([4]; PE application) [%] | Difference resistant to sensitive Δ^D, LOLSS [5] | activity, LOLSS resistant [5] [%] | activity, LOLSS Sensitive [5] [%] | activity, VIOAR [6] [%] | activity, VIOAR ([7]; Incorporation) [%] | activity, VIOAR ([7]; PE application) [%] | activity, HORVS [8] [%] | activity, AVEFA [9, 19] [%] | activity, AVEFA ([9]; PE application) [%] | Difference of the soil types Δ^D = A: activity IU/EC73 soil − B: activity IU soil, TRZAS [10] | activity, TRZAS IU soil [10] [%] | activity, TRZAS IU/EC73 soil [10] [%] | also measured
1 | CC(C)N(C(=O)COc1nnc(C(F)(F)F)s1)c1ccc(F)cc1 [(A) flufenacet, N-(4-fluorophenyl)-N-(1-methylethyl)-2-[[5-(trifluoromethyl)-1,3,4-thiadiazol-2-yl]oxy]acetamide] | 65 | 70 | 30 | Δ^D −15% | 45 | 60 | 80 | 90 | Δ^D −75% | 10 | 85 | 40 | 0 | 0 | 40 | 70 | 80 | Δ^D −33% | 33 | 0 | activity, POOAN [11, 19]: 95%; activity, POOAN ([11]; PE application): 65%; Difference of the soil types Δ^D = A: activity IU/EC73 soil − B: activity IU soil, LOLPE [12]: Δ^D −22%; activity, LOLPE IU soil [12]: 97%; activity, LOLPE IU/EC73 soil [12]: 75%; activity, VIOAR 5 mm [13]: 50%; activity, VIOAR 20 mm [13]: 10%; activity, LOLPE [14]: 65%; activity, MATCH 5 mm [15]: 30%; activity, MATCH 20 mm [15]: 30%; activity, STEME 5 mm [16]: 0%; activity, STEME 20 mm [16]: 10%; activity, TRZAS [17]: 60%; activity, STEME [18]: 30%
2 | CCCN(CCC)C(=O)SCc1ccccc1 [(B) prosulfocarb, S-(phenylmethyl) dipropylcarbamothioate] | 50 | 20 | 35 | Δ^D +20% | 70 | 50 | 0 | 80 | Δ^D −20% | 65 | 85 | 50 | 0 | 20 | 30 | 10 | 80 | Δ^D −5% | 5 | 0 | activity, POOAN [11, 19]: 20%; activity, POOAN ([11]; PE application): 35%; Difference of the soil types Δ^D = A: activity IU/EC73 soil − B: activity IU soil, LOLPE [12]: Δ^D −33%; activity, LOLPE IU soil [12]: 33%; activity, LOLPE IU/EC73 soil [12]: 0%; activity, VIOAR 5 mm [13]: 60%; activity, VIOAR 20 mm [13]: 20%; activity, LOLPE [14]: 60%; activity, MATCH 5 mm [15]: 0%; activity, MATCH 20 mm [15]: 0%; activity, STEME 5 mm [16]: 60%; activity, STEME 20 mm [16]: 50%; activity, TRZAS [17]: 10%; activity, STEME [18]: 30%
3 | COc1nc(C)nc(NC(=O)NS(=O)(=O)c2cc(I)ccc2C(=O)O)n1 [(C)^1 iodosulfuron] |  |  |  | Δ^D −40% | 70 | 100 |  |  | Δ^D −48% | 50 | 98 |  |  |  |  |  |  |  |  |  | Difference resistant to sensitive Δ^D, LOLSS ([5]; listed as standard product (C)): −48%
